The nature of this data set: Human HepG2 cell viability assay in 384 well format. On the set-up: dose 125 nL, time 70.5 hour; concentration not given beside the values. The format is toxicity, cell-based. As to conditions: HepG2 cells, read-out: Inhibition.
On to `CC(C)CCN1CCc2cc(C(=O)N(C)C)c(NCC3CC3)nc2CC1`, for which the cytotoxicity at 70.5 h was 5.09%.
Take `CCCc1nc(N2CCCC(C)C2)c2c(n1)c(C)nn2CC` (stereo not drawn): the cytotoxicity at 70.5 h is -4%.
Take `CN(Cc1cccc(C(N)=O)c1)Cc1nc2c(cnn2C)c(=O)[nH]1`: the cytotoxicity at 70.5 h was -15.8%.
With `Cc1ccc(C)c2c(O)cc(CN3CCNC(=O)C3C)nc12` (stereo not drawn) the figure was -8.28%; with `COc1cc2[nH]c(C(=O)O)cc2c(OC)c1C`, -5.57%.
Take `O=C(c1ccc[nH]1)N1Cc2nccn2CC(Cn2ncccc2=O)C1` (stereo not drawn): the cytotoxicity at 70.5 h was -6.79%.
With `CC(CCSc1ccccc1)N1CCCN(C(N)=O)CC1` (stereo not drawn), the cytotoxicity at 70.5 h came to 28.8%.
With `COCCN1C[C@@H]2CN(S(=O)(=O)c3cccs3)C[C@@H]2C1=O` the figure was -8.88%; with `FC(F)(F)COCCN1CCCC(c2noc(C3CC3)n2)C1` (stereo not drawn), -10.4%.
As for `CCOc1cc(C(=O)NS(=O)(=O)c2cccc(C#N)c2)ccc1OC`, the figure is -10%; as for `O=c1c(NCCc2ccc(O)cc2)c(NCc2ccco2)c1=O`, -4.28%; as for `O=C1OCCN1Cc1ccc(C(F)(F)F)cc1F`, -6.21%.
Consider `CCn1ncc(Cn2cc(Cl)c(N)n2)c1C`, for which the cytotoxicity at 70.5 h turned out to be 19.5%.
Consider `Cc1cccc(C2(O)CCN(C(=O)c3ccccn3)CC2)c1C`, for which the cytotoxicity at 70.5 h was determined as 1.09%.
As for `O=C(c1cccc(-n2cccn2)c1)N1CCOC(CCO)C1` (stereo not drawn), the figure is 1.32%; as for `CC(C#N)NS(=O)(=O)c1cccc(C(C)C)c1` (stereo not drawn), -15.4%; as for `CN(C)c1ccc(C(=O)Nc2cnn(Cc3ccccn3)c2)cc1`, -9.41%.
As for `Cc1nc2c(cc1C(=O)Nc1ccccc1Cl)c(=O)n(C)c(=O)n2C`, the figure is -9.88%; as for `N#CC1(NC(=O)c2ccc(F)c(Br)c2)CCSC1` (stereo not drawn), -8.42%.
As for `O=C(c1cn2ccsc2n1)N1CCN(CC2CC2)[C@@H]2CS(=O)(=O)C[C@@H]21`, the figure is -10.5%.
`CC(NC(=O)c1cc2n(n1)CCCN(C)C2)c1cn2ccsc2n1` (stereo not drawn): the cytotoxicity at 70.5 h was determined as 24.9%.
With `COc1cccc(CCC2CCCN(C(=O)c3cnccn3)C2)c1` (stereo not drawn) the figure was -7.12%.
As for `Cc1cc(C)c2c(N(C)CC3CCN(CC(C)C)C3)ncnc2n1` (stereo not drawn), the figure is -2.13%; as for `Cc1cnc(N2CCC3(CC2)CC(NS(C)(=O)=O)CO3)nc1` (stereo not drawn), 1.23%; as for `O=C(NCc1ccccc1-n1cccn1)N1CCC(N2CCCC2)C1` (stereo not drawn), -6.47%.
As for `O=C(COc1ccccc1)NS(=O)(=O)Cc1ccccc1`, the figure is -1.17%; as for `Cc1nn(C)c(N2CCOCC2)c1CNCc1ccc(Cl)s1`, -2.69%; as for `CC(C)c1noc(CCCC(=O)NCCOc2ccccc2)n1`, -8.16%.
As for `Cc1cccc(C(=O)NC(CN2CCCC2=O)c2ccccc2)n1` (stereo not drawn), the cytotoxicity at 70.5 h worked out at 0.515%.
Consider `COCC1CN(C(=O)c2cccc(C)n2)Cc2nccn2C1` (stereo not drawn), for which the cytotoxicity at 70.5 h was -10.2%.
As for `COCCN(C)S(=O)(=O)c1cc(C)cc(F)c1`, the figure is -5.49%.
With `COCCC1CN(c2nc(-c3ccccc3)nc3c2CCNC3)CCO1` (stereo not drawn) the figure was 25.4%; with `O=C1NCCN(Cc2ccccc2)C1CC(=O)N1CCc2n[nH]cc2C1` (stereo not drawn), 19.3%; with `CN1C(=O)C(c2ccccc2)CC12CCN(CCN)CC2` (stereo not drawn), -5.41%.
As to `CC(CO)Nc1ccc(-c2nc(Cc3ccc(F)cc3)no2)cn1` (stereo not drawn), the cytotoxicity at 70.5 h was -2.07%.
For the molecule `COC(=O)c1ccc(C)c(N2CCNC2=O)c1`, the cytotoxicity at 70.5 h was -2.21%.
With `COCC(=O)N1CCC2(CC1)CC(CC(=O)NC1CC1)c1ccccc12` (stereo not drawn) the figure was -18.5%; with `CC(=O)N1CCCC2(C1)CN(C(=O)C1CCCCC1)CCO2` (stereo not drawn), 23.5%; with `CCCC(C)C(=O)Nc1ccc(OC)nc1N1CCN(C(C)=O)CC1` (stereo not drawn), -6.89%.
As for `CN(C(=O)C1CCOCC1)[C@@H]1CCC[C@@H](N2CCCC2)[C@@H]1O`, the figure is -3.82%; as for `Cc1cnn(CC2CCCCN2C(=O)c2ccnc(N(C)C)c2)c1` (stereo not drawn), -17.7%; as for `NC(=O)Cn1c(CO)cnc1SCC(=O)NCc1ccccc1`, 13.6%.
As to `CNc1cc(N2CCCC2CNCc2ccc(Cl)o2)ncn1` (stereo not drawn), the cytotoxicity at 70.5 h is 8.16%.
With `CCC1=N[C@@]2(CC[C@@H]3CN(S(=O)(=O)CC)C[C@@H]32)C(=O)N1CCOC` the figure was -2.77%; with `CC(C)c1cc(N2CCCC3(CCN(C)C3)C2)ncn1` (stereo not drawn), -5.86%.
With `CSc1ccc(C(C(=O)O)N2CCC(C(=O)N3CCCC3)CC2)cc1` (stereo not drawn) the figure was -4.74%; with `COCC(=O)N(Cc1cccnc1)CC1CCCN(C2CCCCC2)C1` (stereo not drawn), -5.51%; with `Cn1cc(C(=O)CC2CCCN2C(=O)c2ccncc2F)cn1` (stereo not drawn), -9.05%.
As for `CCn1c(C)cc(C(=O)N2C[C@@H](C(=O)O)[C@H](c3ccccc3)C2)c1C`, the figure is -2.74%; as for `Cc1ccc(F)c(C(=O)N2CCC(Nc3ccc(C)nn3)CC2)c1`, -2.35%.
Consider `Cc1nc(-c2c(C)noc2C)cc(C2CCN(CC(=O)N(C)C)CC2)n1`, for which the cytotoxicity at 70.5 h stood at 5.85%.
With `O=C1C(n2nnc(-c3cccs3)n2)CCN1CC(F)(F)F` (stereo not drawn) the figure was -7.6%.
`COc1ccccc1CC(=O)NS(=O)(=O)c1cncc(Br)c1`: the cytotoxicity at 70.5 h is 4.46%.
As for `OC(CN(Cc1ccccc1)Cc1ccon1)c1cccs1` (stereo not drawn), the figure is -5.21%; as for `Cc1ccc(CN2CCC(Cc3nnc(CO)n3C)CC2)cc1C`, 3.69%.
With `COc1ccc(C(C)N(C)Cc2c(C(C)C)[nH]c3ncccc23)cc1` (stereo not drawn) the figure was 20.8%; with `CCC(CC)C(=O)Nc1ccc2oc(=O)n(CCN(C)C)c2c1`, 12.5%.
With `CC1CCN(S(=O)(=O)NC2CCCCNC2=O)CC1` (stereo not drawn) the figure was -5.25%; with `COCCCNC(=O)Nc1cc(-c2ccccc2C)nn1CCO`, -5.71%.
For `Cc1nc(N)ncc1C(=O)N1CCCC1(C)C(=O)N(C)C` (stereo not drawn), the cytotoxicity at 70.5 h is -3.98%.
As for `COc1cccc([C@@]2(O)CC[C@@H]3CN(C(=O)c4c[nH]nc4C)C[C@@H]32)c1`, the figure is -6.08%; as for `CCc1cnc(C)nc1NCCNc1nc(C)cc(=O)[nH]1`, 0.367%; as for `Cc1ccoc1C(=O)N1CCO[C@H]2[C@H](OCC3CCOCC3)CC[C@@H]21`, -15%.
As for `CC(C)c1nn(C)c(N2CCOCC2)c1CNC(C)c1ccco1` (stereo not drawn), the figure is -2.73%; as for `Cn1cccc1C(CNC(=O)COc1ccc(Cl)cc1Cl)N1CCCC1` (stereo not drawn), -16.7%.
Turning to `OCc1nnc2n1CCN(c1cnccn1)C2`, the cytotoxicity at 70.5 h is -1.17%.
With `CSCC[C@H](NC(=O)Cn1ccc2ccc(Cl)cc21)C(=O)O` the figure was -16.7%; with `O=c1cc2c(nn1CN1CCN(c3ccccc3)CC1)CCC2`, -4.25%.
With `O=C(c1cccnc1)N1CC(S(=O)(=O)c2ccc(Cl)cc2)C1` the figure was -10.4%; with `CN1CCC(N2CCOC[C@H]2c2nc(C(C)(C)C)c[nH]2)CC1`, 0.765%.
As for `CNC(=O)C(C)(C)N1CCC[C@H]1C(=O)NC1CCCC1`, the figure is -0.301%; as for `O=C1CO[C@H]2CN(Cc3ccc(F)c(F)c3)C[C@H]2N1`, -12.7%.
Turning to `Cc1oncc1C(=O)NCC(c1ccccc1Cl)N1CCOCC1` (stereo not drawn), the cytotoxicity at 70.5 h was -3.09%.
For `CN(C)C(C(=O)NC1(CO)CCCC1)c1ccc(F)cc1` (stereo not drawn), the cytotoxicity at 70.5 h was determined as 6.65%.
As for `Cn1ccc(C(=O)N2CCCC2c2cc[nH]n2)n1` (stereo not drawn), the figure is 25.1%; as for `Cc1nc(N2CCCC2)nc2c1CN(C(=O)N1CCOCC1)CC2`, -14.3%; as for `CCN(CC)C(=O)c1ccn(COc2cc(C)cc(C)c2)n1`, 4.47%.
As for `O=C1CO[C@@H]2CN(Cc3cccs3)C[C@H]2N1CC1CC1`, the figure is -9.66%; as for `Cn1ncnc1-c1ccnc(NCc2ccccn2)n1`, 9.26%.
With `c1ccc(Cc2nc(CNC3CCOC4(CCOCC4)C3)no2)cc1` (stereo not drawn), the cytotoxicity at 70.5 h is -13.7%.
With `COCCN1CCC2(CC1)CC(Nc1ccc(C)nn1)CO2` (stereo not drawn) the figure was -2.32%.
As for `O=S(=O)(NCC1(O)CCCC1)c1ccccc1Br`, the figure is -0.293%; as for `Cc1cc(C(=O)N2CCN(Cn3cc(Cl)cn3)CC2)c(C)o1`, -5.19%; as for `Cc1nc(C)c(CC(=O)Nc2nnc(C)s2)c(=O)[nH]1`, 0.383%.
With `O=C(NC1CCc2cc(Cl)ccc21)C1CCN(C(=O)C2CC2)CC1` (stereo not drawn) the figure was -4.11%; with `CCCC(=O)Nc1ccc(CC(=O)N(C)CCc2cn[nH]c2)cc1`, -7.4%; with `Cc1cc(C2CCCN2C(=O)c2cc3c(s2)CCC3)on1` (stereo not drawn), -16.3%.
`Cc1cc(-c2cc(C3CCOC3)c(C#N)c(N)n2)ccc1Cl` (stereo not drawn): the cytotoxicity at 70.5 h was -10.8%.
As for `O=C(c1ccc(-n2cnnc2)cc1Cl)N1CCCC2(CCNC2)C1` (stereo not drawn), the figure is 2.05%.
With `COCCN1CCO[C@@H]2CN(C(=O)c3ccc4[nH]ccc4c3)CC[C@@H]2C1` the figure was -11.1%.
As for `CC(C)Oc1ccc(C(=O)N2CCCCC2Cn2cccn2)cn1` (stereo not drawn), the figure is -4.78%.
Take `CCCN(CC1CC1)C(=O)CN1CCCC1c1cnn(C)c1` (stereo not drawn): the cytotoxicity at 70.5 h is -10.4%.
With `COC(=O)c1ccc(N2CCN(C(=O)CC(F)(F)F)C(C)C2)cc1` (stereo not drawn), the cytotoxicity at 70.5 h was -9.89%.
As for `COCC(=O)N1CCC2(CC1)COc1ccccc1S(=O)(=O)N(C)C2`, the figure is 0.748%; as for `CCn1c(=O)nc(N)c2c(-c3ccc(OC)cc3)csc21`, -10.3%; as for `O=C(Cn1nc(-c2ccc(F)cc2)oc1=O)NCC1CCCO1` (stereo not drawn), -3.49%.
As for `Cc1nn(C)c(N2CCOCC2)c1CNC(c1ccccc1)C1CC1` (stereo not drawn), the figure is 11.3%.
As for `Cc1nc(C2CCN(C(=O)c3cscn3)CC2)c2sccn12`, the figure is -1.33%.

The values above are taken from ChEMBL document CHEMBL3507680, “University of Dundee, Gates Library screen for HepG2 cell viability”.
